Each structure is given as a SMILES string.

Type in all cases: in vivo
For test [1], the system named is MIA-induced OA rat model. Put plainly: Weight bearing (incapacitance meter) in MIA-induced OA rat model. Conditions: FIG. 2. As to the method: All animals were allowed to acclimatize for one week after introduction to the laboratory environment. On the day of the start of the experiment, monosodium iodoacetate (MIA, Sigma, Cat. No. 12512) was dissolved in saline for injection at a concentration of 30 mg/mL, and 50 μL of the solution was administered once on the day of the start of the experiment. The animals were divided into groups as follows. The animals were randomly distributed so that the average of each group was distributed as evenly as possible according to the pain threshold evaluation values ranked, so as to obtain the number specified in the “Constitution of Test Groups” table. Individual identification was done by writing numbers directly on the tails of the animals. […]
Weight bearing was measured using the same model as that in Experimental Example 1. […] The weight bearing of each hind paw was measured using an incapacitance meter (Model 600, IITC, USA), a device for measuring weight bearing. […]
When each animal was correctly positioned in the holder, the machine was operated, the measurement time was set to 5 seconds, and a total of two measurements were taken and averaged to determine the weight bearing (g) of each paw. […] The results of the weight-bearing measurement test were converted into weight bearing ratio using the following calculation formula and analyzed.

The test system of a further test is RIPK3. In words: Immunohistochemical analysis of knee joint tissue in MIA-OA animal model: RIPK3. As to conditions: MIA-OA rat; immunohistochemistry; FIG. 8. The protocol:
(§1) All animals were allowed to acclimatize for one week after introduction to the laboratory environment. On the day of the start of the experiment, monosodium iodoacetate (MIA, Sigma, Cat. No. 12512) was dissolved in saline for injection at a concentration of 30 mg/mL, and 50 μL of the solution was administered once on the day of the start of the experiment. The animals were divided into groups as follows. The animals were randomly distributed so that the average of each group was distributed as evenly as possible according to the pain threshold evaluation values ranked, so as to obtain the number specified in the “Constitution of Test Groups” table. Individual identification was done by writing numbers directly on the tails of the animals. Individual identification cards of different colors were attached to the housing boxes according to each dose. An animal room usage record sheet containing the test number, animal room usage period, principal investigator name, subinvestigator name, emergency contact information, etc. was attached to the animal room entrance. […]
(§2) The histopathological analysis of knee joint tissue was performed using the same model as that in Experimental Example 1. […] Then, the Dab-positive area expressing each cytokine in the synovium was extracted using ImageJ software (Wayne Rasband, NIH, USA) and expressed as a percentage relative to the total nuclear area.

The subject of test [2] is knee joint tissue of MIA-OA rat model. Put plainly: Histopathological analysis of knee joint tissue (Safranin O staining, OARSI and Mankin scores) in MIA-OA animal model. The protocol:
All animals were allowed to acclimatize for one week after introduction to the laboratory environment. On the day of the start of the experiment, monosodium iodoacetate (MIA, Sigma, Cat. No. 12512) was dissolved in saline for injection at a concentration of 30 mg/mL, and 50 μL of the solution was administered once on the day of the start of the experiment. The animals were divided into groups as follows. The animals were randomly distributed so that the average of each group was distributed as evenly as possible according to the pain threshold evaluation values ranked, so as to obtain the number specified in the “Constitution of Test Groups” table. Individual identification was done by writing numbers directly on the tails of the animals. Individual identification cards of different colors were attached to the housing boxes according to each dose. An animal room usage record sheet containing the test number, animal room usage period, principal investigator name, subinvestigator name, emergency contact information, etc. was attached to the animal room entrance. The test groups consisted of WT, vehicle, 25 mg/kg Compound 2, and 50 mg/kg Compound 2, respectively, which were administered orally once a day for a total of 21 days starting from 3 days after MIA administration.
Histopathological analysis of knee joint tissue was performed using the same model as that in Experimental Example 1. For histopathological analysis, Safranin 0 staining was performed, and two evaluators scored the severity of osteoarthritis according to the following evaluation criteria. As the analysis criteria, OARSI and total Mankin scores were analyzed. The OARSI analysis criteria were scored as follows: 0: normal cartilage surface; 1: cartilage surface is normal but cell death is found; 2: disruption of the cartilage surface and fibrosis of the surface layer; 3: splitting along the longitudinal axis of cartilage; 4: damage and infiltration to the middle part of cartilage; 5: exposure of stromal bone area; and 6: complete cartilage damage and formation of osteophytes. The total Mankin score analysis criteria were analyzed for four items: structure (0-6), cell (0-3), Safranin 0 (0-4), and tidemark (0-1). A higher score for each item indicates more damage to chondrocytes cells and structure.

The next test has as its system IL-6. In words: Immunohistochemical analysis of knee joint tissue in MIA-OA animal model: IL-6. As to conditions: MIA-OA rat; immunohistochemistry; FIG. 5. As to the method: as §1, §2
Test [3] has as its system MIA-induced OA rat model. In words: Pain suppression (nociceptive pain threshold, dynamic plantar aesthesiometer) in MIA-induced OA rat model. Conditions: FIG. 1. As to the method: All animals were allowed to acclimatize for one week after introduction to the laboratory environment. On the day of the start of the experiment, monosodium iodoacetate (MIA, Sigma, Cat. No. 12512) was dissolved in saline for injection at a concentration of 30 mg/mL, and 50 μL of the solution was administered once on the day of the start of the experiment. The animals were divided into groups as follows. The animals were randomly distributed so that the average of each group was distributed as evenly as possible according to the pain threshold evaluation values ranked, so as to obtain the number specified in the “Constitution of Test Groups” table. Individual identification was done by writing numbers directly on the tails of the animals. Individual identification cards of different colors were attached to the housing boxes according to each dose. […]
The nociceptive pain threshold (g) was measured using a dynamic plantar aesthesiometer (Ugo Basile, 37400, Comerio, Italy), a device in which the force applied to the animal's paw gradually increases over a certain period of time. […] The results for the nociceptive pain threshold were calculated as paw withdrawal latency (sec) and paw withdrawal threshold (g).

The next test has as its system MMP3. In words: Immunohistochemical analysis of knee joint tissue in MIA-OA animal model: MMP3. Conditions: MIA-OA rat; immunohistochemistry; FIG. 7. As to the method: as §1, §2
A further test relates to MCP-1. Put plainly: Immunohistochemical analysis of knee joint tissue in MIA-OA animal model: MCP-1. As to conditions: MIA-OA rat; immunohistochemistry; FIG. 6. The protocol: as §1, §2
Where [4] appears, read: oral once a day, 21 days, FIG. 4.

In the case of `CCOc1ccc(C2COc3c(ccc4c3CCC(C)(C)O4)C2)c(O)c1` (centres unmarked) [Compound 2], in the test on MIA-induced OA rat model [1] (25 mg/kg and 50 mg/kg orally once a day for 21 days), the “weight bearing following cartilage damage” value is “reduced”. The “weight bearing efficacy compared with positive control celecoxib” value in the test with MIA-induced OA rat model [1] (oral once a day, 21 days) is on record as “efficacy equivalent to that of celecoxib”. Further, in the test on RIPK3, the “RIPK3 in knee joint tissue (Dab-positive area)” value is “inhibited” and the “RIPK3 inhibition efficacy compared with positive control celecoxib” value was “better efficacy than celecoxib”. Also, the “histopathology score efficacy compared with positive control celecoxib” value in test [2] (OARSI and Mankin scores, FIG. 4) was “efficacy equivalent to that of celecoxib”. The “Safranin 0 staining of the cartilage tissue” value in test [2] (oral once a day, 21 days, FIG. 3) was “improved”. Besides, in test [2] (setting [4]), the “Mankin score (severity of osteoarthritis)” value is given as “reduced” and the “ORASI score (severity of osteoarthritis)” value is “reduced”. Also, in the test on IL-6, the “IL-6 in knee joint tissue (Dab-positive area)” value is recorded as “inhibited”. The “pain caused by cartilage damage (nociceptive pain threshold)” value in the test with MIA-induced OA rat model [3] (25 mg/kg and 50 mg/kg orally once a day for 21 days from 3 days after MIA) is listed as “gradually reduced”. Further, in the test with MIA-induced OA rat model [3] (oral once a day, 21 days), the “pain suppression efficacy compared with positive control celecoxib” value was “efficacy equivalent to that of the positive control, celecoxib”. In the test with MMP3, the “MMP3 in knee joint tissue (Dab-positive area)” value was “reduced” and the “MMP3 reduction efficacy compared with positive control celecoxib” value is reported as “better efficacy than celecoxib”. The “MCP-1 in knee joint tissue (Dab-positive area)” value with MCP-1 is on record as “inhibited”.

The values above are taken from patent US20260216123A1, “PHARMACEUTICAL COMPOSITION FOR PREVENTING OR TREATING DEGENERATIVE OSTEOARTHRITIS” (GLACEUM INC., priority 2023, published 2026).
